Data from patent US12421282B2, “Compositions and methods for the treatment of metabolic and liver disorders” (priority 2021, dated 2025).
Where two headings read alike, the source gives them in different places. *1 amine or outer side, *2 acyl side, *3 side chain or, on linkers, in order; H or OH if unused. Where a SMILES comes first, the peptide text is derived from it. Side-chain parts run from the residue outwards. [ ]: non-standard residue; d: D form. The star is where a group is joined. Nonadecanoyl(19-PO3H2) = O=C(CCCCCCCCCCCCCCCCCCP(=O)(O)O)*; γGlu = O=C(O)[C@H](CCC(=O)[*:2])N[*:1]; AEEA = NCCOCCOCC(=O)O; Aib = CC(C)(N)C(=O)O

Assays:
[1] = molecular target: human recombinant GLP-1 receptor (Homo sapiens, UniProt P43220); assay: TagLite binding assay, GLP-1 receptor, without and with 2% HSA
Description: (§1) Binding data for Compounds 15-25, for two human recombinant G protein coupled receptors, GLP-1 and GIP, was obtained using […]® binding assay and Epics Therapeutics cell lines. The binding assay was repeated in the presence of 2% human serum albumin (HSA). Compounds 16, 21, and 22 have an HSA ratio for the GLP-1 receptor of 7.1, 7.6, and 7.8, respectively. Compounds 15, 18, and 23 have an HSA ratio for the GIP receptor of 7.3, 4.3, and 6.4, respectively. A lower HSA ratio indicates greater binding affinity for the receptor than for albumin when compared to a compound with a greater HSA ratio.

[2] = molecular target: T1, human recombinant GIP receptor (Homo sapiens, UniProt P48546); assay: TagLite binding assay, GIP receptor, without and with 2% HSA
T1 sequence (P48546 22-466): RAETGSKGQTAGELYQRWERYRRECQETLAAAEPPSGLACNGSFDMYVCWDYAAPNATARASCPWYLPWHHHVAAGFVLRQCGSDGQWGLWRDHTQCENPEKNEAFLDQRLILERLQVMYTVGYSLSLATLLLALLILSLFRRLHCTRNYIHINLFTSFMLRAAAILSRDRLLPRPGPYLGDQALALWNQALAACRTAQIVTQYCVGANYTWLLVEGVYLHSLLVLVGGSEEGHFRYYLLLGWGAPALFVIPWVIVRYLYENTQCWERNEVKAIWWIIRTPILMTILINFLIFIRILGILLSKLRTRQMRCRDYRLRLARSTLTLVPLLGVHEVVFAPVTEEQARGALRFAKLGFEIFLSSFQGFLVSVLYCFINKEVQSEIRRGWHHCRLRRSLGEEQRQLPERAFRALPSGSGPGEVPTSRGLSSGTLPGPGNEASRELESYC
Description: as §1

[3] = set-up: species or system cynomolgus monkeys; settings: cynomolgus monkey, in vivo, sc, 0.2 mg/kg
Procedure: Subcutaneous (SC) dosing of the compounds in a vehicle of 0.1% bovine serum albumin in phosphate buffered saline solution was performed with male cynomolgus monkeys. […] Samples were obtained at 1, 4, 8, 12, 24, 48, 72, 96, 120, 168, 192, 240 and 336 hours after the single dose was administered.

Chain of human recombinant GLP-1 receptor (P43220 24-463): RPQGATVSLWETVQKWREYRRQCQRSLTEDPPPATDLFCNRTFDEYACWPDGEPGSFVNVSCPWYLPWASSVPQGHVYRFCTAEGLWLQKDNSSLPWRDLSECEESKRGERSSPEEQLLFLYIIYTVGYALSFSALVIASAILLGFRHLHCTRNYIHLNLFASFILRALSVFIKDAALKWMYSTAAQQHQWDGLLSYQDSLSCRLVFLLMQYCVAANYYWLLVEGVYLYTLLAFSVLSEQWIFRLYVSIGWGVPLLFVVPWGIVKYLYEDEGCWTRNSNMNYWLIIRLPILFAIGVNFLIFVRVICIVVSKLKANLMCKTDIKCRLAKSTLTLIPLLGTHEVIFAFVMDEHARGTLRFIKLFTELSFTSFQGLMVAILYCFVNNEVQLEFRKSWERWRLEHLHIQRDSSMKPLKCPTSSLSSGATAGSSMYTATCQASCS

Q: For `CC[C@H](C)[C@H](NC(=O)[C@H](CC(C)C)NC(=O)[C@H](Cc1c[nH]c2ccccc12)NC(=O)[C@H](CCC(N)=O)NC(=O)[C@@H](NC(=O)[C@H](Cc1ccccc1)NC(=O)[C@H](C)NC(=O)[C@H](CCCCNC(=O)COCCOCCNC(=O)COCCOCCNC(=O)CC[C@H](NC(=O)CCCCCCCCCCCCCCCCCCP(=O)(O)O)C(=O)O)NC(=O)[C@H](CCC(N)=O)NC(=O)[C@H](CO)NC(=O)[C@@H](NC(=O)[C@H](CCCCN)NC(=O)[C@H](CC(=O)O)NC(=O)[C@H](CC(C)C)NC(=O)C(C)(C)NC(=O)[C@@H](NC(=O)[C@H](CO)NC(=O)[C@H](Cc1ccc(O)cc1)NC(=O)[C@H](CC(=O)O)NC(=O)[C@H](CO)NC(=O)[C@@H](NC(=O)[C@H](Cc1ccccc1)NC(=O)[C@@H](NC(=O)CNC(=O)[C@H](CCC(=O)O)NC(=O)C(C)(C)NC(=O)[C@@H](N)Cc1ccc(O)cc1)[C@@H](C)O)[C@@H](C)O)[C@@H](C)CC)[C@@H](C)CC)C(C)C)C(=O)N[C@@H](C)C(=O)NCC(=O)NCC(=O)N1CCC[C@H]1C(=O)N[C@@H](CO)C(=O)N[C@@H](CO)C(=O)NCC(=O)N[C@@H](C)C(=O)N1CCC[C@H]1C(=O)N1CCC[C@H]1C(=O)N1CCC[C@H]1C(=O)N[C@@H](CO)C(N)=O` [Compound 24] (H-Y[Aib]EGTFTSDYSI[Aib]LDKISQK([AEEA-AEEA-γGlu-Nonadecanoyl(19-PO3H2)])AFVQWLIAGGPSSGAPPPS-NH2), which IC50 ([1]; 2% human serum albumin, read-out: GLP-1 receptor IC50 2% HSA) is on record?
A: 6.83 µM

Q: What about the IC50 ([1]; no HSA, read-out: GLP-1 receptor IC50 No HSA) of the same compound?
A: 0.686 µM

Q: What about the IC50 ([2]; 2% human serum albumin, read-out: GIP receptor IC50 2% HSA) of the same compound?
A: 11.4 µM

Q: And the IC50 ([2]; no HSA, read-out: GIP receptor IC50 No HSA)?
A: 1.16 µM

Q: And the AUC(0-inf) [3]?
A: 348 µg·h/mL

Q: And the AUC(0-t) [3]?
A: 302 µg·h/mL

Q: What about the Cmax [3] of the same compound?
A: 2130 ng/mL

Q: And the Tmax [3]?
A: 22.7 h

Q: And the half-life [3]?
A: 4.63 days

Q: And the “mean half life longer compared to tirzepatide” value [3]?
A: at least 50%
